Experimental data from ChEMBL document CHEMBL1138944, “3-Substituted gem-cyclohexane sulfone based gamma-secretase inhibitors for Alzheimer's disease: conformational analysis and biological activity” (Bioorg Med Chem Lett, 2006).

Target: Gamma-secretase
Experiment: Inhibition of gamma secretase expressed in SH-SY5Y cells
Type: cell-based, Homo sapiens

IC50 | Compound
24 nM | O=C(O)CC[C@@H]1CCC[C@](c2cc(F)ccc2F)(S(=O)(=O)c2ccc(Cl)cc2)C1 (relative stereo)
112 nM | O=S(=O)(c1ccc(Cl)cc1)[C@@]1(c2cc(F)ccc2F)CCC[C@H](CCCO)C1 (relative stereo)
85 nM | C=CC[C@H]1CCC[C@](c2cc(F)ccc2F)(S(=O)(=O)c2ccc(Cl)cc2)C1
8 nM | O=S(=O)(c1ccc(Cl)cc1)[C@@]1(c2cc(F)ccc2F)CCC[C@@H](CCCO)C1 (relative stereo)
380 nM | O=C(O)CC[C@H]1CCC[C@](c2cc(F)ccc2F)(S(=O)(=O)c2ccc(Cl)cc2)C1 (relative stereo)
376 nM | COC(=O)CCC[C@H]1CCC[C@](c2cc(F)ccc2F)(S(=O)(=O)c2ccc(Cl)cc2)C1 (relative stereo)
3 nM | COC(=O)CCC[C@@H]1CCC[C@](c2cc(F)ccc2F)(S(=O)(=O)c2ccc(Cl)cc2)C1 (relative stereo)

More lines, now with the values behind:

Compound | IC50
COC(=O)/C=C/C[C@@H]1CCC[C@](c2cc(F)ccc2F)(S(=O)(=O)c2ccc(Cl)cc2)C1 (relative stereo) | 10 nM
C=CC[C@@H]1CCC[C@](c2cc(F)ccc2F)(S(=O)(=O)c2ccc(Cl)cc2)C1 (relative stereo) | 44 nM
COC(=O)CCC[C@]1(C)CCC[C@](c2cc(F)ccc2F)(S(=O)(=O)c2ccc(Cl)cc2)C1 (relative stereo) | 10 nM
COC(=O)CCC[C@@]1(C)CCC[C@](c2cc(F)ccc2F)(S(=O)(=O)c2ccc(Cl)cc2)C1 (relative stereo) | 1630 nM
O=C[C@H]1CCC[C@](c2cc(F)ccc2F)(S(=O)(=O)c2ccc(Cl)cc2)C1 (relative stereo) | 55 nM
O=C[C@@H]1CCC[C@](c2cc(F)ccc2F)(S(=O)(=O)c2ccc(Cl)cc2)C1 (relative stereo) | 77 nM
COC(=O)/C=C/C[C@H]1CCC[C@](c2cc(F)ccc2F)(S(=O)(=O)c2ccc(Cl)cc2)C1 (relative stereo) | 210 nM
